Source: patent publication US11434237B2, “Selective ligands for tau aggregates” (KARIN & STEN MORTSTEDT CBD SOLUTIONS AB, priority 2017, dated 2022)

Tests used:
Aβ aggregates = target: T1, Aβ aggregates (Homo sapiens, UniProt P05067); assay: Compound and antibody 4G8 double staining of AD brain tissue sections; assay type: binding; settings: for Overlap between Fluorescence from tested compound and fluorescence from 4G8 observed / Fluorescence from tested compound observed: 100 nM compound, human AD brain tissue sections; for Overlap between Fluorescence from tested compound and fluorescence from 4G8 observed: Aβ antibody 4G8; for Fluorescence from tested compound observed: double staining with Aβ antibody 4G8; for Fluorescence from 4G8 observed: signal of Aβ antibody 4G8 in the section stained with 100 nM of the compound
T1 construct: compound and antibody double staining of Aβ or tau aggregates; from tissue; host or cells: human AD brain tissue sections (20 μm)
Experimental: (§1) To achieve compound and antibody double staining of Aβ or tau aggregates, tissue sections (20 μm) from human AD brain were fixed in 70% EtOH at 4° C. for 3 min, rehydrated in distilled water and then incubated in PBS for 30 min. Sections were blocked and permeabilized in PBS with 5% normal goat serum and 0.1% triton X-100 (blocking buffer) for 1 h at room temperature (RT). Antibody 4G8 (Biolegend, San Diego, Calif., USA) reactive to Aβ, and AT100 (Thermo Fisher Scientific, Waltham, Mass., USA) directed against tau phosphorylated at […] (3) were diluted 1:500 and 1:1000, respectively, in blocking buffer and added to the sections. After 16 h incubation at 4° C. unbound antibody was removed by washing in PBS with 0.1% triton X-100 (PBS-T) 3×10 min. To visualize antibody binding to Aβ or tau aggregates sections were incubated with goat anti-mouse secondary antibody labelled with Alexa 647 (Thermo Fisher Scientific). The antibody was diluted 1:200 in blocking buffer and after 1 h incubation at RT sections were washed in PBS 3×10 min. Example Compound 3a, Example Compound 3b, Example Compound 3c, Example Compound 3d, Example Compound 3e, Example Compound 3f, Example Compound 3g, Example Compound 3h, Example Compound 3i, Example Compound 3j, Example Compound 3k, Example Compound 3m, Example Compound 3n, Example Compound 3o, Example Compound 3p, Example Compound 3q, Example Compound 3r, Example Compound 3s, Example Compound 3t, Example Compound 3u, Example Compound 8a, Comparative Example 1, Comparative Example 2, Comparative Example 3 and Comparative Example 4 were dissolved in DMSO to a concentration of 1.5 mM and then further diluted in PBS to a final concentration of 100 nM compound prior to staining. The tissue sections were then stained for 30 min at RT with these freshly prepared solutions containing 100 nM of the respective compound in PBS. After three washes in PBS the sections were mounted in Dako mounting medium for fluorescence (Dako Cytomation, Glostrup, Denmark) and allowed to dry overnight before analysis. Fluorescence images were collected using an inverted LSM 780 confocal microscope (Carl Zeiss, Oberkochen, Germany) with the following excitation/emission wavelengths optimized for each compound: 458/484-600 (Comparative Example 1, Comparative Example 3), 561/569-648 (Example Compound 3a, Example Compound 3b, Example Compound 3c, Example Compound 3d, Example Compound 3e, Example Compound 3f, Example Compound 3g, Example Compound 3h, Example Compound 3i, Example Compound 3j, Example Compound 3k, Example Compound 3m, Example Compound 3n, Example Compound 3o, Example Compound 3p, Example Compound 3q, Example Compound 3r, Example Compound 3s, Example Compound 3t, Example Compound 3u, Example Compound 8a, Comparative Example 2 and Comparative Example 4) and 633/638-755 (Alexa 647). To visualize autofluorescent lipofuscin excitation/emission wavelengths 405/410-480 or 405/410-514 were used.

tau aggregates [1] = target: T2, tau aggregates (Homo sapiens, UniProt P10636); assay: Compound and antibody AT100 double staining of AD brain tissue sections; assay type: binding; settings: for Labelling of immune-positive NFTs and dystrophic neurites / Fluorescence from tested compound observed / Overlap between Fluorescence from tested compound and fluorescence from AT-100 observed: 100 nM compound; for Labelling of immune-positive NFTs and dystrophic neurites: AT100 co-staining, AD brain sections; for Fluorescence from tested compound observed / Overlap between Fluorescence from tested compound and fluorescence from AT-100 observed: human AD brain tissue sections; for Fluorescence from tested compound observed: double staining with tau antibody AT-100; for Overlap between Fluorescence from tested compound and fluorescence from AT-100 observed: tau antibody AT-100; for Fluorescence from AT-100 observed: signal of tau antibody AT-100 in the section stained with 100 nM of the compound
T2 construct: tissue sections (20 μm) from human AD brain; from tissue; host or cells: human AD brain tissue sections (20 μm)
Experimental: as §1

Aβ and tau deposits [2] = assay: Co-staining of AD brain sections with q-FTAA-CN and Example Compound 3a; assay type: binding, human; settings: simultaneous staining, 100 nM q-FTAA-CN and 100 nM Example Compound 3a
Experimental: (§2) Frozen brain sections (20 μm) were fixed in 96% EtOH, rehydrated in 50% EtOH and de-ionized water and then incubated in phosphate buffered saline (PBS, 10 mM phosphate, 140 mM NaCl, 2.7 mM KCl, pH 7.4) for 10 min. Solutions containing 100 nM PBB3 and 100 nM Example Compound 3b or 100 nM q-FTAA-CN and 100 nM Example Compound 3a in PBS were added to the sections. After 30 min, the sections were washed with PBS and mounted with Dako fluorescent mounting medium (Dako Cytomation, Glostrup, Denmark). The mounting medium was allowed to solidify over night before collecting emission spectra of the compounds bound to misfolded A ? and tau using an inverted LSM 780 confocal microscope (Carl Zeiss, Oberkochen, Germany) with excitation wavelengths at 405 nm (PBB3 and q-FTAA-CN) and 561 nm (Example Compound 3a and Example Compound 3b).

Aβ and tau deposits [3] = assay: Co-staining of AD brain sections with PBB3 and Example Compound 3b; assay type: binding, human; settings: simultaneous 100 nM PBB3 and 100 nM Example Compound 3b
Experimental: as §2

tau aggregates [4] = target: T2, tau aggregates; assay: Example Compound 3b staining of AD brain sections pre-incubated with PBB3 or PBS; assay type: binding
Experimental: (§3) Frozen brain sections (20 μm) were fixed in 96% EtOH, rehydrated in 50% EtOH and de-ionized water and then incubated in phosphate buffered saline (PBS, 10 mM phosphate, 140 mM NaCl, 2.7 mM KCl, pH 7.4) for 10 min. The sections were stained with solutions containing 1 ? M PBB3 or 1 ? M q-FTAA-CN in PBS for 30 min and after rinsing three times with PBS, the sections was stained with a solution containing 10 nM Example Compound 3b. After 30 min, the sections were washed with PBS and mounted with Dako fluorescent mounting medium (Dako Cytomation, Glostrup, Denmark). The mounting medium was allowed to solidify over night before collecting emission spectra of the compounds bound to misfolded Aβ and tau using an inverted LSM 780 confocal microscope (Carl Zeiss, Oberkochen, Germany) with excitation wavelengths at 405 nm (PBB3 and q-FTAA-CN) and 561 nm (Example Compound 3b).

tau aggregates [5] = target: T2, tau aggregates; assay: Example Compound 3b staining of AD brain sections pre-incubated with q-FTAA-CN; assay type: binding; settings: FIG. 7H, pre-incubated with 1 μM q-FTAA-CN, then 10 nM Example Compound 3b
Experimental: as §3

T2 sequence (P10636 1-441 isoform P10636-8): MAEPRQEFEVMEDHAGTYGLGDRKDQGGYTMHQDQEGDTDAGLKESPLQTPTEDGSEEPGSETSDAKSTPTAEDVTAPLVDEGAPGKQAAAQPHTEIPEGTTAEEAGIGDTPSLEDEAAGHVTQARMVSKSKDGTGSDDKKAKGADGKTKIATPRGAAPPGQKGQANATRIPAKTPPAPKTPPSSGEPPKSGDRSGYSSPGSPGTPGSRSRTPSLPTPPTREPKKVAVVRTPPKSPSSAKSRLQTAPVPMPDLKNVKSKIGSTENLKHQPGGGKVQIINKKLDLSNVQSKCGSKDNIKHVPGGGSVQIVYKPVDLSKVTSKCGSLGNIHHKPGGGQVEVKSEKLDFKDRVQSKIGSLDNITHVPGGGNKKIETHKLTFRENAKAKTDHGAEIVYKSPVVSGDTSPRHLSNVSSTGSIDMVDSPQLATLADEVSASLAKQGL
T1 sequence (P05067 672-713 limits assumed): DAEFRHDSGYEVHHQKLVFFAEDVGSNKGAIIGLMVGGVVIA

SMILES | Overlap between Fluorescence from tested compound and fluorescence from 4G8 observed (Aβ aggregates) | Fluorescence from tested compound observed (Aβ aggregates) | Fluorescence from 4G8 observed (Aβ aggregates) | Labelling of immune-positive NFTs and dystrophic neurites (tau aggregates [1]) | Fluorescence from tested compound observed (tau aggregates [1]) | Overlap between Fluorescence from tested compound and fluorescence from AT-100 observed (tau aggregates [1]) | Fluorescence from AT-100 observed (tau aggregates [1]) | other results
CC[n+]1c(/C=C/c2ccc(-c3ccc(C(=O)OC)s3)s2)sc2ccccc21 [Example Compound 3a] | no correlation and no | yes | yes | labelled both immune-positive NFTs and dystrophic neurites | yes | yes | yes | Deposits labelled (Aβ and tau deposits [2]): tau aggregates (arrows) displayed Example Compound 3a fluorescence; Fluorescence from Example 3a observed (Aβ and tau deposits [2]; FIG. 7A-C): yes; Overlap between Fluorescence from Example 3a and fluorescence from q-FTAA-CN (Aβ and tau deposits [2]; FIG. 7A-C): no
CC[n+]1c(/C=C/c2ccc(-c3ccc(I)s3)s2)sc2ccccc21 [Example Compound 3b] | no correlation and no | yes | yes | labelled both immune-positive NFTs and dystrophic neurites | yes | yes | yes | Fluorescence from Example Compound 3b observed (Aβ and tau deposits [3]; FIG. 7E): yes; Overlap between Fluorescence from Example Compound 3b and fluorescence from PBB3 (Aβ and tau deposits [3]; FIG. 7E): no; Deposits labelled (Aβ and tau deposits [3]): tau deposits, NFTs and dystrophic neurites, displayed characteristic emission; Selectivity and affinity for tau deposits compared with PBB3 (Aβ and tau deposits [3]): higher selectivity and most likely a higher affinity for tau deposits than PBB3; Fluorescence from Example Compound 3b observed (tau aggregates [4]; FIG. 7F, pre-incubated with 1 μM PBB3, then 10 nM Example Compound 3b): no observable Example Compound 3b fluorescence and no; Fluorescence from Example Compound 3b observed (tau aggregates [4]; FIG. 7G, pre-incubated in PBS only, 10 nM Example Compound 3b): fluorescence was observed from the tau aggregates and yes; Fluorescence from Example Compound 3b observed (tau aggregates [5]): observed from the tau aggregates and could easily be observed from the q-FTAA-CN positive NFTs as well as from q-FTAA-CN negative dystrophic neurites and yes; Overlap between Fluorescence from Example Compound 3b and fluorescence from q-FTAA-CN (tau aggregates [5]): yes
CC[n+]1c(/C=C/c2ccc(-c3ccc(C(=O)OC)[se]3)s2)[se]c2ccc(OC)cc21.[I-] [Example Compound 3p] | no correlation and no | yes | yes | labelled both immune-positive NFTs and dystrophic neurites | yes | yes | yes | –
CC[n+]1c(/C=C/c2ccc(-c3ccc[se]3)s2)[se]c2ccc(OC)cc21.[I-] [Example Compound 3q] | no correlation and no | yes | yes | labelled both immune-positive NFTs and dystrophic neurites | yes | yes | yes | –
CC[n+]1c(/C=C/c2ccc(-c3ccc(C(=O)OC)[se]3)s2)sc2ccccc21.[I-] [Example Compound 3r] | no correlation and no | yes | yes | labelled both immune-positive NFTs and dystrophic neurites | yes | yes | yes | –
CC[n+]1c(/C=C/c2ccc(-c3ccc4ncsc4c3)s2)sc2ccccc21.[I-] [Example Compound 3s] | no correlation and no | yes | yes | labelled both immune-positive NFTs and dystrophic neurites | yes | yes | yes | –
CC[n+]1c(/C=C/c2ccc(-c3ccc(C#N)s3)s2)sc2ccccc21.[I-] [Example Compound 3t] | no correlation and no | yes | yes | labelled both immune-positive NFTs and dystrophic neurites | yes | yes | yes | –
CC[n+]1c(/C=C/c2ccc(-c3ccc(C(=O)OC)s3)s2)sc2ccc(O)cc21.[I-] [Example Compound 3u] | no correlation and no | yes | yes | labelled both immune-positive NFTs and dystrophic neurites | yes | yes | yes | –
N#Cc1cc(CC(=O)O)c(-c2ccc(-c3sc(-c4ccc(C(=O)O)s4)cc3CC(=O)O)s2)s1 [q-FTAA-CN, reference compound] | – | – | – | – | – | – | – | Deposits labelled (Aβ and tau deposits [2]): selectively labelled Aβ deposits; Fluorescence from q-FTAA-CN observed (Aβ and tau deposits [2]; FIG. 7A-C): yes; Fluorescence from q-FTAA-CN observed (tau aggregates [5]): observed from both Aβ deposits (small arrow-heads) and tau aggregates and yes; Fluorescence from q-FTAA-CN observed (tau aggregates [5]; listed as q-FTAA): labelled both Aβ deposits and NFTs
